{
  "source": "paper PMC12527934",
  "about": "(Nature, 2025)",
  "key": {"[1]": {"tested_on": "p-KNL1 in NCI-H1048 cells", "test": "Immunoblot of p-KNL1", "format": "cell-based, human"}, "[2]": {"tested_on": "RPE1 cells", "test": "Cell-count dose–response assay", "format": "cell-based, human", "conditions": "RPE1, even at high doses"}, "[3]": {"tested_on": "46 human SCLC cell lines", "test": "Cell Titer Glo proliferation assay, panel of 46 SCLC cell lines", "format": "cell-based", "conditions": "4–8 days"}, "[4]": {"tested_on": "human peripheral blood CD34+ cells", "format": "cell-based", "conditions": "CD34+ haematopoietic stem and progenitor cells, even at high doses"}, "[5]": {"tested_on": "NCI-H1048 cells", "test": "Live-cell imaging of mitosis", "format": "cell-based, human", "conditions": "NCI-H1048 GFP–H2B, 20 nM"}, "[6]": {"tested_on": "NCI-H1048 cells", "test": "Cell-count dose–response assay", "format": "cell-based, human", "conditions": "for activity in proliferation, apoptosis and cell cycle assays: NCI-H1048"}, "[7]": {"tested_on": "NCI-H69 xenografts", "test": "NCI-H69 cell line xenograft efficacy study", "format": "in vivo, mouse", "conditions": "100 mg per kg daily i.v. 14 days"}, "[8]": {"tested_on": "NCI-H1048 xenografts", "test": "NCI-H1048 cell line xenograft efficacy study", "format": "in vivo, mouse", "conditions": "100 mg per kg daily i.v. 14 days"}, "[9]": {"test": "Body weight, NCI-H69 xenograft study", "format": "in vivo, mouse", "conditions": "100 mg per kg daily 14 days"}, "[10]": {"test": "Body weight, NCI-H1048 xenograft study", "format": "in vivo, mouse", "conditions": "100 mg per kg daily 14 days"}, "[11]": {"tested_on": "NCI-H69 cells", "test": "Nocodazole synchronization, propidium iodide FACS", "format": "cell-based, human", "conditions": "NCI-H69, 60 ng ml−1, overnight"}},
  "note": "*1 amine or outer side, *2 acyl side, *3 side chain or, on linkers, in order; H or OH if unused. Where a SMILES comes first, the peptide text is derived from it. Bridges are numbered along the chain shown (N, C = ends). [ ]: non-standard residue; d: D form. The star is where a group is joined. X4 = CN([C@@H](Cc1cc(Cl)ccc1-c1cnn(C)c1)C(=O)[*:2])[*:1]; X5 = CN([C@@H](Cc1cc(Cl)nn1-c1ccccc1)C(=O)[*:2])[*:1]; cBuCO(3,3-F2-1-CF3) = O=C(C1(C(F)(F)F)CC(F)(F)C1)*; NMePhe(2,5-Cl2) = CN[C@@H](Cc1cc(Cl)ccc1Cl)C(=O)O; X2 = CCCN([C@@H](Cc1cc(Cl)ccc1Cl)C(=O)[*:2])[*:1]; Nle(6-morpholino) = N[C@@H](CCCCN1CCOCC1)C(=O)O; X6 = CN([C@H](Cc1cc(Cl)ccc1Cl)C(=O)[*:2])[*:1]; Pro(trans-4-F) = O=C(O)[C@@H]1C[C@@H](F)CN1; dPro(trans-4-F) = O=C(O)[C@H]1C[C@H](F)CN1; X3 = O=C([C@@H](c1cccnc1)C1CCCCC1)*; Gly(cPr) = N[C@H](C(=O)O)C1CC1; X1 = C[C@@](O)(C(=O)*)C(F)(F)F; Cba = N[C@@H](CC1CCC1)C(=O)O; NMeK = CN[C@@H](CCCCN)C(=O)O; dCba = N[C@H](CC1CCC1)C(=O)O; dNMeK = CN[C@H](CCCCN)C(=O)O; dNva = CCC[C@@H](N)C(=O)O; Ac3c = NC1(C(=O)O)CC1; Aib = CC(C)(N)C(=O)O",
  "data": [
    {"smiles": "COc1ccc(Oc2cc(NCCC(F)(F)F)c3ncc(-c4ccc(C(=O)NC5CC5)c(C)c4)n3n2)c(F)c1F", "note": "[BAY-1217389]", "values": [
      {"measurement": "KNL1 phosphorylation and proliferation", "setting": "[1]; 3 nM, NCI-H1048", "result": "blocked KNL1 phosphorylation without affecting proliferation"}
    ]},
    {"smiles": "CC(C)C[C@@H]1NC(=O)[C@@H](N(C)C(=O)[C@H](CC2CCC2)NC(=O)[C@@H]2C[C@@H](F)CN2C(=O)C2(C(F)(F)F)CC(F)(F)C2)CCCCNC(=O)C2(CC2)NC(=O)[C@H](Cc2cc(Cl)ccc2Cl)N(C)C1=O", "note": "[CIRc-004] ({cBuCO(3,3-F2-1-CF3)}-[Pro(trans-4-F)][Cba][NMeK]L[NMePhe(2,5-Cl2)][Ac3c]; lactam 3-C)", "values": [
      {"measurement": "sensitivity of normal cells (mitotic arrest, apoptosis)", "setting": "[2]", "result": "insensitive"},
      {"measurement": "sensitivity of 46 SCLC cell lines in anti-proliferation assays", "setting": "[3]", "result": "Nearly all lines were highly sensitive"},
      {"measurement": "sensitivity of normal cells (mitotic arrest, apoptosis)", "setting": "[4]", "result": "insensitive"},
      {"measurement": "anaphase initiation (live-cell imaging)", "setting": "[5]", "result": "blocked anaphase initiation"}
    ]},
    {"smiles": "CC(C)C[C@H]1NC(=O)[C@H](N(C)C(=O)[C@@H](CC2CCC2)NC(=O)[C@H]2C[C@H](F)CN2C(=O)C2(C(F)(F)F)CC(F)(F)C2)CCCCNC(=O)C2(CC2)NC(=O)[C@@H](Cc2cc(Cl)ccc2Cl)N(C)C1=O", "note": "[CIRc-005] ({cBuCO(3,3-F2-1-CF3)}-[dPro(trans-4-F)][dCba][dNMeK][dL][X6][Ac3c]; lactam 3-C)", "values": [
      {"measurement": "effect on cellular proliferation", "setting": "[6]; NCI-H1048, 200 nM", "result": "had no effect on cellular proliferation"}
    ]},
    {"smiles": "CCC[C@H]1NC(=O)[C@H](Cc2cc(Cl)ccc2-c2cnn(C)c2)N(C)C(=O)[C@H](CC(C)C)NC(=O)[C@@H](N(C)C(=O)[C@H](CCCCN2CCOCC2)NC(=O)[C@@H](c2cccnc2)C2CCCCC2)CCCCNC1=O", "note": "[CIRc-018] (X3-[Nle(6-morpholino)][NMeK]L[X4][dNva]; lactam 2-C)", "values": [
      {"measurement": "activity in proliferation, apoptosis and cell cycle assays", "setting": "[6]", "result": "lacked activity"}
    ]},
    {"smiles": "CC(C)C[C@@H]1NC(=O)[C@@H](N(C)C(=O)[C@@H](NC(=O)[C@@H]2C[C@@H](F)CN2C(=O)C2(C(F)(F)F)CC(F)(F)C2)C2CC2)CCCCNC(=O)C(C)(C)NC(=O)[C@H](Cc2cc(Cl)nn2-c2ccccc2)N(C)C1=O", "note": "[CIRc-019] ({cBuCO(3,3-F2-1-CF3)}-[Pro(trans-4-F)][Gly(cPr)][NMeK]L[X5][Aib]; lactam 3-C)", "values": [
      {"measurement": "activity in proliferation, apoptosis and cell cycle assays", "setting": "[6]", "result": "lacked activity"}
    ]},
    {"smiles": "CCCN1C(=O)[C@H](CC(C)C)NC(=O)[C@@H](N(C)C(=O)[C@H](CC2CCC2)NC(=O)[C@@H]2C[C@@H](F)CN2C(=O)[C@@](C)(O)C(F)(F)F)CCCCNC(=O)C2(CC2)NC(=O)[C@@H]1Cc1cc(Cl)ccc1Cl", "note": "[CIRc-028] (X1-[Pro(trans-4-F)][Cba][NMeK]L[X2][Ac3c]; lactam 3-C)", "values": [
      {"measurement": "tumour response", "setting": "[7]", "result": "induced tumour regressions"},
      {"measurement": "tumour response", "setting": "[8]", "result": "substantially inhibited growth"},
      {"measurement": "tolerability, body weight", "setting": "[9]", "result": "well tolerated without weight loss"},
      {"measurement": "tolerability, body weight", "setting": "[10]", "result": "well tolerated without weight loss"}
    ]},
    {"smiles": "COCc1cc(C(=O)Nc2cc([C@H]3CC[C@@H](OC(=O)NC(C)C)C3)[nH]n2)n(C)n1", "note": "[PF-07104091]", "values": [
      {"measurement": "SAC activation", "setting": "[1]; NCI-H1048 cells, 24 h", "result": "did not activate the SAC"}
    ]},
    {"smiles": "COC(=O)Nc1nc2ccc(C(=O)c3cccs3)cc2[nH]1", "note": "[nocodazole]", "values": [
      {"measurement": "cells in mitotic arrest", "setting": "[11]", "result": "around 90%"}
    ]}
  ]
}
